Data reported in patent US20080255150A1, “Novel Compounds” (ASTRAZENECA AB, priority 2005, published 2008).

target: T1, rhCRTh2 (Homo sapiens, UniProt Q9Y5Y4); assay: Ligand binding assay, [3H]PGD2 SPA on HEK cell membranes; conditions: [3H]PGD2 displacement; membranes of HEK cells expressing rhCRTh2/Gα16; SPA beads; 2 h at RT; read-out: pIC50 value (converted)
T1 construct: expressed in transfected cells; expression induced with sodium butyrate; membrane preparation
T1 sequence (Q9Y5Y4 1-395): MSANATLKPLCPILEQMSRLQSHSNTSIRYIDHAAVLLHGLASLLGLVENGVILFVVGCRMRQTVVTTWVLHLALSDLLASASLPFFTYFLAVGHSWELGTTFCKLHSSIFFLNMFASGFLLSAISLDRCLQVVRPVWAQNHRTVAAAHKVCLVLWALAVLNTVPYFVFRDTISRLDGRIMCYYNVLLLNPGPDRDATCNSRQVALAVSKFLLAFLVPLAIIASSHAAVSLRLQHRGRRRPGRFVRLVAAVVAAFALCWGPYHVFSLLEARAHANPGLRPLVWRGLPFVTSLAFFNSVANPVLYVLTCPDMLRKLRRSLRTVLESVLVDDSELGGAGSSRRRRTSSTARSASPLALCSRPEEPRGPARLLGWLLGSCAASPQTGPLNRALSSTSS
Procedure: [^3H]PGD2 was purchased from Perkin Elmer Life Sciences with a specific activity of 100-210 Ci/mmol. All other chemicals were of analytical grade.
HEK cells expressing rhCRTh2/Gα16 were routinely maintained in DMEM containing 10% Foetal Bovine Serum (HyClone), 1 mg/ml geneticin, 2 mM L-glutamine and 1% non-essential amino acids. For the preparation of membranes, the adherent transfected HEK cells were grown to confluence in two layer tissue culture factories (Fisher, catalogue number TKT-170-070E). Maximal levels of receptor expression were induced by addition of […] sodium butyrate for the last 18 h of culture. The adherent cells were washed once with phosphate buffered saline (PBS, 50 ml per cell factory) and detached by the addition of 50 ml per cell factory of ice-cold membrane homogenisation buffer [20 mM HEPES (pH 7.4), 0.1 mM dithiothreitol, 1 mM EDTA, 0.1 mM phenyl methyl sulphonyl fluoride and 100 μg/ml bacitracin]. […] The final pellet was re-suspended in 4 ml of membrane homogenisation buffer per cell factory used and the protein content determined. […]
All assays were performed in Corning clear bottomed, white 96-well NBS plates (Fisher). […] (The optimum coating concentrations were determined for each batch of membranes) The beads were pelleted by centrifugation (800×g for 7 minutes at 4° C.), washed once with assay buffer (50 mM HEPES pH 7.4 containing 5 mM magnesium chloride) and finally re-suspended in assay buffer at a bead concentration of 10 mg/ml.
Each assay contained 20 μl of 6.25 nM [^3H]PGD2, 20 μl membrane saturated SPA beads both in assay buffer and 10 μl of compound solution or 13,14-dihydro-15-keto prostaglandin D2 (DK-PGD2, for determination of non-specific binding, Cayman chemical company). […] The assay plate was incubated at RT for 2 h and counted on a Wallac Microbeta liquid scintillation counter (1 minute per well).

SMILES | IC50 [nM]
C[C@H]1CN(Cc2cc(Cl)ccc2CCC(=O)O)CCN1C(=O)Cc1ccccc1 [Example 4, 3-(4-chloro-2-{[(3S)-3-methyl-4-(phenylacetyl)piperazin-1-yl]methyl}phenyl)propanoic acid] | 79.4
C[C@H]1CN(Cc2cc(Cl)ccc2CC(=O)O)CCN1S(=O)(=O)c1ccccc1 [Example 9, (4-chloro-2-{[(3S)-3-methyl-4-(phenylsulfonyl)piperazin-1-yl]methyl}phenyl)acetic acid] | 14.1
C[C@H]1CN(Cc2cc(Cl)ccc2CC(=O)O)CCN1C(=O)Cc1ccc(F)cc1F [Example 12, [4-chloro-2-({(3S)-4-[(2,4-difluorophenyl)acetyl]-3-methylpiperazin-1-yl}methyl)phenyl]acetic acid] | 7.94
